Source: US7205382B2, “Peptides, the production and use thereof for binding immunoglobulins” (Fresenius Medical Care Affina GmbH, priority 2000, dated 2007)
Bridge positions count the residues as written; N and C are the ends. Square brackets hold non-standard residues; d marks the D form. Ends that are not written are not given here. cellulose = not defined here; βAla = NCCC(=O)O

Assays:
Type in all cases: binding
Set-up in all cases: key: No binding of immunoglobulin for the defined peptide variant, detection negative: 0; Binding of immunoglobulin for the defined peptide variant, detection positive: +
serum albumin = assay: Cellulose-immobilized 13-mer peptide variants incubated with serum albumin (negative control), anti-human IgG-AP detection; conditions: blocking buffer without addition, 3 h room temperature
Outline: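 Membrane-bound peptides, spaced by two β-alanines, are probed with 1 μg/ml IgG-Fc or 1:10,000 serum for 3 h at room temperature; blocking buffer alone acts as control. Detection uses anti-human IgG-AP (1.2 μg/ml) and NBT/BCIP.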

[1] = test system: immunoglobulins in human plasma; assay: Cellulose-immobilized 13-mer peptide variants incubated with human plasma, anti-human IgG-AP detection; conditions: human plasma as sample, diluted 1:10,000 in blocking buffer, 3 h room temperature
Outline: (§1)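 Binding is scored by NBT/BCIP precipitate from an AP-conjugated anti-human IgG probe on membrane-synthesized peptides. Targets are applied for 3 h at room temperature in 4% BSA/5% saccharose block: IgG-Fc at 1 μg/ml, serum at 1:10,000.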

human IgG-Fc = assay: Cellulose-immobilized 13-mer peptide variants incubated with human IgG-Fc, anti-human IgG-AP detection; conditions: IgG-Fc 1 μg/ml in blocking buffer, 3 h room temperature
Outline: as §1

Which “Result for incubation with serum albumin (immunoglobulin binding detection)” value (from here on “Result for incubation with serum albumin”) (serum albumin) does the source give for “01D: starting 13-mer DCAWHLGELVWCT-(βA)(βA), R1=amino, cellulose-bound” here?
Its value is 0.

And the “Result for incubation with human plasma (immunoglobulin binding detection)” value (shortened to “Result for incubation with human plasma”) [1]?
The value was “+”.

What about the “Result for incubation with human IgG-Fc (immunoglobulin binding detection)” value (shortened to “Result for incubation with human IgG-Fc”) (human IgG-Fc) of the same substance?
The value was “+”.

With “10W: cellulose-bound 13-mer variant DCAWHLGELWWCT-(βA)(βA) (DCAWHLGELWWCT-{βAla-βAla-cellulose}; disulfide 2-12 (inferred); reading uncertain; also: printed as DCAWHLGELWWCT-(βA)(βA))” as the substance, how does the “Result for incubation with serum albumin” value (serum albumin) read?
The value was 0.

What about the “Result for incubation with human plasma” value [1] of the same substance?
Its value is 0.

And the “Result for incubation with human IgG-Fc” value (human IgG-Fc)?
The value was 0.

For “09H: cellulose-bound 13-mer variant DCAWHLGEHVWCT-(βA)(βA) (DCAWHLGEHVWCT-{βAla-βAla-cellulose}; disulfide 2-12 (inferred); reading uncertain; also: printed as DCAWHLGEHVWCT-(βA)(βA))”, which “Result for incubation with serum albumin” value (serum albumin) is on record?
Its value is 0.

And the “Result for incubation with human plasma” value [1]?
The value was 0.

And the “Result for incubation with human IgG-Fc” value (human IgG-Fc)?
The value was 0.

“11P: cellulose-bound 13-mer variant DCAWHLGELVPCT-(βA)(βA)” was tested. Which “Result for incubation with serum albumin” value (serum albumin) did it give?
The value was 0.

And the “Result for incubation with human plasma” value [1]?
The value was 0.

And the “Result for incubation with human IgG-Fc” value (human IgG-Fc)?
The value was 0.

Which “Result for incubation with serum albumin” value (serum albumin) does the source give for “05W: cellulose-bound 13-mer variant DCAWWLGELVWCT-(βA)(βA) (disulfide 2-12 (inferred); not fully specified (N-terminus, C-terminus); printed as DCAWWLGELVWCT-(βA)(βA); also: cellulose-bound)” here?
Its value is 0.

What about the “Result for incubation with human plasma” value [1] of the same substance?
Its value is 0.

And the “Result for incubation with human IgG-Fc” value (human IgG-Fc)?
The value was 0.

With “12H: cellulose-bound 13-mer variant DCAWHLGELVWHT-(βA)(βA) (DCAWHLGELVWHT-{βAla-βAla-cellulose}; not fully specified; printed as DCAWHLGELVWHT-(βA)(βA); reading uncertain)” as the substance, how does the “Result for incubation with serum albumin” value (serum albumin) read?
Its value is 0.

What about the “Result for incubation with human plasma” value [1] of the same substance?
The value was 0.

And the “Result for incubation with human IgG-Fc” value (human IgG-Fc)?
The value was 0.

“12E: cellulose-bound 13-mer variant DCAWHLGELVWET-(βA)(βA) (DCAWHLGELVWET-{βAla-βAla-cellulose}; not fully specified; printed as DCAWHLGELVWET-(βA)(βA); reading uncertain)” was tested. Which “Result for incubation with serum albumin” value (serum albumin) did it give?
Its value is 0.

What about the “Result for incubation with human plasma” value [1] of the same substance?
Its value is 0.

And the “Result for incubation with human IgG-Fc” value (human IgG-Fc)?
Its value is 0.

Which “Result for incubation with serum albumin” value (serum albumin) does the source give for “09N: cellulose-bound 13-mer variant DCAWHLGENVWCT-(βA)(βA) (DCAWHLGENVWCT-{βAla-βAla-cellulose}; disulfide 2-12 (inferred); reading uncertain; also: printed as DCAWHLGENVWCT-(βA)(βA))” here?
Its value is 0.

What about the “Result for incubation with human plasma” value [1] of the same substance?
The value was 0.

And the “Result for incubation with human IgG-Fc” value (human IgG-Fc)?
The value was 0.

How did the “Result for incubation with serum albumin” value (serum albumin) turn out when “02D: cellulose-bound 13-mer variant DDAWHLGELVWCT-(βA)(βA) (DDAWHLGELVWCT[βAla][βAla]; not fully specified; printed as DDAWHLGELVWCT-(βA)(βA); also: cellulose-bound)” was run?
The value was 0.

What about the “Result for incubation with human plasma” value [1] of the same substance?
Its value is 0.

What about the “Result for incubation with human IgG-Fc” value (human IgG-Fc) of the same substance?
The value was 0.

Which results are given for “07L: cellulose-bound 13-mer variant DCAWHLLELVWCT-(βA)(βA) (DCAWHLLELVWCT-{βAla-βAla-cellulose}; disulfide 2-12 (inferred); not fully specified (N-terminus); printed as DCAWHLLELVWCT-(βA)(βA); reading uncertain)”?
Result for incubation with serum albumin (immunoglobulin binding detection) (serum albumin): 0; Result for incubation with human plasma (immunoglobulin binding detection) [1]: 0; Result for incubation with human IgG-Fc (immunoglobulin binding detection) (human IgG-Fc): 0

How did the “Result for incubation with serum albumin” value (serum albumin) turn out when “05Q: cellulose-bound 13-mer variant DCAWQLGELVWCT-(βA)(βA) (disulfide 2-12 (inferred); not fully specified (N-terminus, C-terminus); printed as DCAWQLGELVWCT-(βA)(βA); also: cellulose-bound)” was run?
Its value is 0.

And the “Result for incubation with human plasma” value [1]?
Its value is 0.

And the “Result for incubation with human IgG-Fc” value (human IgG-Fc)?
Its value is 0.

What does the source list for “02S: cellulose-bound 13-mer variant DSAWHLGELVWCT-(βA)(βA) (DSAWHLGELVWCT[βAla][βAla]; not fully specified; printed as DSAWHLGELVWCT-(βA)(βA); also: cellulose-bound)”?
Result for incubation with serum albumin (immunoglobulin binding detection) (serum albumin): 0; Result for incubation with human plasma (immunoglobulin binding detection) [1]: 0; Result for incubation with human IgG-Fc (immunoglobulin binding detection) (human IgG-Fc): 0

For “04C: cellulose-bound 13-mer variant DCACHLGELVWCT-(βA)(βA) (DCACHLGELVWCT-{βAla-βAla-cellulose}; disulfide (positions not given here); not fully specified (bridges); printed as DCACHLGELVWCT-(βA)(βA); reading uncertain)”, which “Result for incubation with serum albumin” value (serum albumin) is on record?
The value was 0.

What about the “Result for incubation with human plasma” value [1] of the same substance?
Its value is 0.

And the “Result for incubation with human IgG-Fc” value (human IgG-Fc)?
The value was 0.

Which “Result for incubation with serum albumin” value (serum albumin) does the source give for “01G: cellulose-bound 13-mer variant GCAWHLGELVWCT-(βA)(βA) (GCAWHLGELVWCT-{βAla-βAla-cellulose}; disulfide 2-12 (inferred); reading uncertain; also: printed as GCAWHLGELVWCT-(βA)(βA))” here?
Its value is 0.

What about the “Result for incubation with human plasma” value [1] of the same substance?
The value was “+”.

What about the “Result for incubation with human IgG-Fc” value (human IgG-Fc) of the same substance?
The value was “+”.

Which results are given for “05N: cellulose-bound 13-mer variant DCAWNLGELVWCT-(βA)(βA) (disulfide 2-12 (inferred); not fully specified (N-terminus, C-terminus); printed as DCAWNLGELVWCT-(βA)(βA); also: cellulose-bound)”?
Result for incubation with serum albumin (immunoglobulin binding detection) (serum albumin): 0; Result for incubation with human plasma (immunoglobulin binding detection) [1]: 0; Result for incubation with human IgG-Fc (immunoglobulin binding detection) (human IgG-Fc): 0

What does the source list for “07C: cellulose-bound 13-mer variant DCAWHLCELVWCT-(βA)(βA) (DCAWHLCELVWCT-{βAla-βAla-cellulose}; not fully specified (N-terminus); printed as DCAWHLCELVWCT-(βA)(βA); cysteine pairing not given here; reading uncertain)”?
Result for incubation with serum albumin (immunoglobulin binding detection) (serum albumin): 0; Result for incubation with human plasma (immunoglobulin binding detection) [1]: 0; Result for incubation with human IgG-Fc (immunoglobulin binding detection) (human IgG-Fc): 0

Which “Result for incubation with serum albumin” value (serum albumin) does the source give for “06Q: cellulose-bound 13-mer variant DCAWHQGELVWCT-(βA)(βA) (DCAWHQGELVWCT-{βAla-βAla-cellulose}; disulfide 2-12 (inferred); not fully specified (N-terminus); printed as DCAWHQGELVWCT-(βA)(βA); reading uncertain)” here?
Its value is 0.

And the “Result for incubation with human plasma” value [1]?
Its value is “+”.

What about the “Result for incubation with human IgG-Fc” value (human IgG-Fc) of the same substance?
Its value is “+”.

What does the source list for “05T: cellulose-bound 13-mer variant DCAWTLGELVWCT-(βA)(βA) (disulfide 2-12 (inferred); not fully specified (N-terminus, C-terminus); printed as DCAWTLGELVWCT-(βA)(βA); also: cellulose-bound)”?
Result for incubation with serum albumin (immunoglobulin binding detection) (serum albumin): 0; Result for incubation with human plasma (immunoglobulin binding detection) [1]: 0; Result for incubation with human IgG-Fc (immunoglobulin binding detection) (human IgG-Fc): 0

How did the “Result for incubation with serum albumin” value (serum albumin) turn out when “03G: cellulose-bound 13-mer variant DCGWHLGELVWCT-(βA)(βA) (DCGWHLGELVWCT-{βAla-βAla-cellulose}; disulfide 2-12 (inferred); reading uncertain; also: printed as DCGWHLGELVWCT-(βA)(βA))” was run?
Its value is 0.

And the “Result for incubation with human plasma” value [1]?
Its value is 0.

What about the “Result for incubation with human IgG-Fc” value (human IgG-Fc) of the same substance?
The value was 0.

With “11N: cellulose-bound 13-mer variant DCAWHLGELVNCT-(βA)(βA)” as the substance, how does the “Result for incubation with serum albumin” value (serum albumin) read?
Its value is 0.

And the “Result for incubation with human plasma” value [1]?
The value was 0.

And the “Result for incubation with human IgG-Fc” value (human IgG-Fc)?
Its value is 0.
